In ChEMBL document CHEMBL5316337, “Critical Role of Position 10 Residue in the Polymyxin Antimicrobial Activity” (J Med Chem, 2023):

Columns and labels:
Format in all cases: functional
Acinetobacter baumannii [1] = experiment: Antibacterial activity against polymyxin-susceptible Acinetobacter baumannii ATCC 17978 clinical isolates assessed as reduction in bacterial growth by broth microdilution method
Pseudomonas aeruginosa [2] = experiment: Antibacterial activity against Carbapenem-resistant Pseudomonas aeruginosa FADD1-PA001 clinical isolates assessed as reduction in bacterial growth by broth microdilution method
Klebsiella pneumoniae [3] = experiment: Antibacterial activity against Carbapenem-resistant Klebsiella pneumoniae FADD1-KP065 clinical isolates assessed as reduction in bacterial growth by broth microdilution method
Klebsiella pneumoniae [4] = experiment: Antibacterial activity against polymyxin-susceptible Klebsiella pneumoniae ATCC 700721 clinical isolates assessed as reduction in bacterial growth by broth microdilution method
Enterobacter cloacae [5] = experiment: Antibacterial activity against polymyxin-susceptible Enterobacter cloacae FADD1-EC001 clinical isolates assessed as reduction in bacterial growth by broth microdilution method
Pseudomonas aeruginosa [6] = experiment: Antibacterial activity against polymyxin-susceptible Pseudomonas aeruginosa ATCC 27853 clinical isolates assessed as reduction in bacterial growth by broth microdilution method
Enterobacter cloacae [7] = experiment: Antibacterial activity against polymyxin-susceptible Enterobacter cloacae FADD1-EC003 clinical isolates assessed as reduction in bacterial growth by broth microdilution method
Pseudomonas aeruginosa [8] = experiment: Antibacterial activity against polymyxin-susceptible Pseudomonas aeruginosa FADD1-PA025 clinical isolates assessed as reduction in bacterial growth by broth microdilution method
Pseudomonas aeruginosa [9] = experiment: Antibacterial activity against Carbapenem-resistant Pseudomonas aeruginosa FADD1-PA022 clinical isolates assessed as reduction in bacterial growth by broth microdilution method
Klebsiella pneumoniae [10] = experiment: Antibacterial activity against Carbapenem-resistant Klebsiella pneumoniae BM1 clinical isolates assessed as reduction in bacterial growth by broth microdilution method
Pseudomonas aeruginosa [11] = experiment: Antibacterial activity against polymyxin-susceptible Pseudomonas aeruginosa FADD1-PA038 clinical isolates assessed as reduction in bacterial growth by broth microdilution method
Klebsiella pneumoniae [12] = experiment: Antibacterial activity against Carbapenem-resistant Klebsiella pneumoniae FADD1-KP032 clinical isolates assessed as reduction in bacterial growth by broth microdilution method
Acinetobacter baumannii [13] = experiment: Antibacterial activity against Carbapenem-resistant Acinetobacter baumannii FADD1-AB034 clinical isolates assessed as reduction in bacterial growth by broth microdilution method
Acinetobacter baumannii [14] = experiment: Antibacterial activity against Carbapenem-resistant Acinetobacter baumannii FADD1-AB030 clinical isolates assessed as reduction in bacterial growth by broth microdilution method
Enterobacter cloacae [15] = experiment: Antibacterial activity against polymyxin-susceptible Enterobacter cloacae FADD1-EC006 clinical isolates assessed as reduction in bacterial growth by broth microdilution method
Acinetobacter baumannii [16] = experiment: Antibacterial activity against polymyxin-susceptible Acinetobacter baumannii ATCC 19606 clinical isolates assessed as reduction in bacterial growth by broth microdilution method
Klebsiella pneumoniae [17] = experiment: Antibacterial activity against Carbapenem-resistant Klebsiella pneumoniae FADD1-KP022 clinical isolates assessed as reduction in bacterial growth by broth microdilution method

Measured: MIC

CC[C@H](C)CCCCC(=O)N[C@@H](CCN)C(=O)N[C@H](C(=O)N[C@@H](CCN)C(=O)N[C@H]1CCNC(=O)[C@H](CC(N)=O)NC(=O)[C@H](CCN)NC(=O)[C@H](CCN)NC(=O)[C@H](CC(C)C)NC(=O)[C@@H](Cc2ccccc2)NC(=O)[C@H](CCN)NC1=O)[C@@H](C)O
16 µg/mL: Acinetobacter baumannii [1]
8 µg/mL: Klebsiella pneumoniae [3] | Klebsiella pneumoniae [17]
4 µg/mL: Pseudomonas aeruginosa [8]
32 µg/mL: Pseudomonas aeruginosa [6] | Enterobacter cloacae [7]
1 µg/mL: Pseudomonas aeruginosa [9]
> 32 µg/mL: all other assays above

CC[C@H](C)CCCCC(=O)N[C@@H](CCN)C(=O)N[C@H](C(=O)N[C@@H](CCN)C(=O)N[C@H]1CCNC(=O)[C@H](C(C)N=[N+]=[N-])NC(=O)[C@H](CCN)NC(=O)[C@H](CCN)NC(=O)[C@H](CC(C)C)NC(=O)[C@@H](Cc2ccccc2)NC(=O)[C@H](CCN)NC1=O)[C@@H](C)O (some centres not stated)
4 µg/mL: Klebsiella pneumoniae [4] | Enterobacter cloacae [7] | Pseudomonas aeruginosa [11]
0.5 µg/mL: Acinetobacter baumannii [14]
8 µg/mL: Enterobacter cloacae [5]
2 µg/mL: Acinetobacter baumannii [1] | Klebsiella pneumoniae [10] | Klebsiella pneumoniae [12] | Acinetobacter baumannii [13] | Acinetobacter baumannii [16]
32 µg/mL: Enterobacter cloacae [15]
1 µg/mL: all other assays above

CC[C@H](C)CCCCC(=O)N[C@@H](CCN)C(=O)N[C@H](C(=O)N[C@@H](CCN)C(=O)N[C@H]1CCNC(=O)[C@H](C(C)C)NC(=O)[C@H](CCN)NC(=O)[C@H](CCN)NC(=O)[C@H](CC(C)C)NC(=O)[C@@H](Cc2ccccc2)NC(=O)[C@H](CCN)NC1=O)[C@@H](C)O
0.25 µg/mL: Klebsiella pneumoniae [17]
4 µg/mL: Acinetobacter baumannii [1] | Enterobacter cloacae [5] | Acinetobacter baumannii [13] | Acinetobacter baumannii [16]
2 µg/mL: Enterobacter cloacae [7] | Pseudomonas aeruginosa [11] | Acinetobacter baumannii [14]
8 µg/mL: Klebsiella pneumoniae [4]
16 µg/mL: Enterobacter cloacae [15]
1 µg/mL: all other assays above

CC[C@H](C)CCCCC(=O)N[C@@H](CCN)C(=O)N[C@H](C(=O)N[C@@H](CCN)C(=O)N[C@H]1CCNC(=O)[C@H](COC)NC(=O)[C@H](CCN)NC(=O)[C@H](CCN)NC(=O)[C@H](CC(C)C)NC(=O)[C@@H](Cc2ccccc2)NC(=O)[C@H](CCN)NC1=O)[C@@H](C)O
4 µg/mL: Klebsiella pneumoniae [4] | Acinetobacter baumannii [13]
0.25 µg/mL: Klebsiella pneumoniae [17]
8 µg/mL: Enterobacter cloacae [5] | Enterobacter cloacae [7] | Pseudomonas aeruginosa [11] | Acinetobacter baumannii [16]
32 µg/mL: Enterobacter cloacae [15]
1 µg/mL: Klebsiella pneumoniae [3] | Pseudomonas aeruginosa [9] | Klebsiella pneumoniae [10] | Acinetobacter baumannii [14]
0.5 µg/mL: Pseudomonas aeruginosa [6]
2 µg/mL: all other assays above

CC[C@H](C)CCCCC(=O)N[C@@H](CCN)C(=O)N[C@H](C(=O)N[C@@H](CCN)C(=O)N[C@H]1CCNC(=O)[C@H](C(C)(C)C)NC(=O)[C@H](CCN)NC(=O)[C@H](CCN)NC(=O)[C@H](CC(C)C)NC(=O)[C@@H](Cc2ccccc2)NC(=O)[C@H](CCN)NC1=O)[C@@H](C)O
1 µg/mL: Klebsiella pneumoniae [17]
2 µg/mL: Pseudomonas aeruginosa [2] | Pseudomonas aeruginosa [6] | Pseudomonas aeruginosa [8] | Pseudomonas aeruginosa [9] | Klebsiella pneumoniae [12]
8 µg/mL: Klebsiella pneumoniae [4] | Enterobacter cloacae [5] | Klebsiella pneumoniae [10] | Enterobacter cloacae [15] | Acinetobacter baumannii [16]
4 µg/mL: all other assays above

CC[C@H](C)CCCCC(=O)N[C@@H](CCN)C(=O)N[C@H](C(=O)N[C@@H](CCN)C(=O)N[C@H]1CCNC(=O)[C@@H]([C@H](C)O)NC(=O)[C@H](CCN)NC(=O)[C@H](CCN)NC(=O)[C@H](CC(C)C)NC(=O)[C@@H](Cc2ccccc2)NC(=O)[C@H](CCN)NC1=O)[C@@H](C)O
32 µg/mL: Pseudomonas aeruginosa [6]
4 µg/mL: Acinetobacter baumannii [1]
2 µg/mL: Pseudomonas aeruginosa [9]
16 µg/mL: Pseudomonas aeruginosa [8]
> 32 µg/mL: all other assays above
